Measurements as given in PubChem BioAssay AID256 (DTP/NCI, 2004).
“And” between values parts separate entries of the source, which are not always exact repeats. Identical values can stand only once. Inconclusive results and toxic doses are left out. Rule for the calls: active = survival T/C of 150% or more; inactive = T/C below 125% in these data.

System: CD2F1 mice, L1210 leukemia ip, survival T/C
Test: NCI In Vivo Anticancer Drug Screen. Data for tumor model L1210 Leukemia (intraperitoneal) in CD2F1 (CDF1) mice
Details: higher = longer survival
In short: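 Vehicle-treated tumor-bearing mice served as controls (C) for compound-treated mice (T). Reported figure is T divided by C.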

[1] = endpoint: mean survival time, dose: 100.0 mg/kg/injection, schedule: Q04DX003 (ip), vehicle: saline with Tween-80
[2] = endpoint: mean survival time, dose: 200.0 mg/kg/injection, schedule: Q04DX003 (ip), vehicle: saline with Tween-80
[3] = endpoint: mean survival time, dose: 400.0 mg/kg/injection, schedule: Q04DX003 (ip), vehicle: saline with Tween-80
[4] = endpoint: mean survival time, dose: 50.0 mg/kg/injection, schedule: Q01DX009 (ip), vehicle: saline with Tween-80
[5] = endpoint: mean survival time, dose: 100.0 mg/kg/injection, schedule: Q01DX001 (ip), vehicle: saline with Tween-80
[6] = endpoint: mean survival time, dose: 100.0 mg/kg/injection, schedule: Q01DX009 (ip), vehicle: saline with Tween-80
[7] = endpoint: mean survival time, dose: 200.0 mg/kg/injection, schedule: Q01DX001 (ip), vehicle: saline with Tween-80
[8] = endpoint: mean survival time, dose: 200.0 mg/kg/injection, schedule: Q01DX009 (ip), vehicle: saline with Tween-80
[9] = endpoint: mean survival time, dose: 400.0 mg/kg/injection, schedule: Q01DX001 (ip), vehicle: saline with Tween-80
[10] = endpoint: mean survival time, dose: 400.0 mg/kg/injection, schedule: Q01DX009 (ip), vehicle: saline with Tween-80
[11] = endpoint: mean survival time, dose: 50.0 mg/kg/injection, schedule: Q01DX009 (ip), vehicle: saline
[12] = endpoint: mean survival time, dose: 100.0 mg/kg/injection, schedule: Q01DX009 (ip), vehicle: saline
[13] = endpoint: mean survival time, dose: 25.0 mg/kg/injection, schedule: Q04DX002 (ip), vehicle: saline

Measured: T/C

CN(C)c1ccc2c(N(C)C)cc(N(C)C)nc2c1
inactive: endpoint: mean survival time, dose: 0.78 mg/kg/injection, schedule: Q01DX009 (ip), vehicle: Klucel (hydroxypropylcellulose) (HPC) 106 % of control | endpoint: mean survival time, dose: 1.56 mg/kg/injection, schedule: Q01DX009 (ip), vehicle: Klucel (hydroxypropylcellulose) (HPC) 102 % of control | endpoint: mean survival time, dose: 3.12 mg/kg/injection, schedule: Q01DX009 (ip), vehicle: Klucel (hydroxypropylcellulose) (HPC) 104 % of control | endpoint: mean survival time, dose: 6.25 mg/kg/injection, schedule: Q01DX009 (ip), vehicle: Klucel (hydroxypropylcellulose) (HPC) 98 % of control | endpoint: mean survival time, dose: 12.5 mg/kg/injection, schedule: Q01DX009 (ip), vehicle: Klucel (hydroxypropylcellulose) (HPC) 113 % of control and 96 % of control | endpoint: mean survival time, dose: 25.0 mg/kg/injection, schedule: Q01DX009 (ip), vehicle: Klucel (hydroxypropylcellulose) (HPC) 88 % of control

S=C(S)NC1CCCCCCCCCCC1
inactive: [1] 102 % of control | [2] 100 % of control | [3] 93 % of control

O=C(NC(=S)Nc1cc(Cl)ccc1Cl)c1cccc(Br)c1
inactive: [4] 100 % of control | [5] 100 % of control | [6] 101 % of control and 105 % of control and 106 % of control | endpoint: mean survival time, dose: 100.0 mg/kg/injection, schedule: Q04DX002 (ip), vehicle: saline with Tween-80 89 % of control and 95 % of control | [1] 94 % of control | [7] 97 % of control | [8] 98 % of control and 101 % of control | endpoint: mean survival time, dose: 200.0 mg/kg/injection, schedule: Q04DX002 (ip), vehicle: saline with Tween-80 90 % of control and 95 % of control | [2] 90 % of control | [9] 100 % of control | [10] 115 % of control (2×) and 105 % of control | endpoint: mean survival time, dose: 400.0 mg/kg/injection, schedule: Q04DX002 (ip), vehicle: saline with Tween-80 92 % of control and 95 % of control | [3] 86 % of control

CCCCN(CCCC)C(=S)Nc1ccccc1
inactive: [4] 96 % of control | [5] 107 % of control | [6] 96 % of control | [7] 102 % of control | [8] 86 % of control | [9] 96 % of control

O=C(O)/C=C/C(=O)NCc1ccco1
inactive: [1] 94 % of control | [2] 94 % of control | [3] 94 % of control

CO[C@H]1C[C@H](O[C@H]2CC[C@]3(C=O)[C@H]4CC[C@]5(C)[C@@H](C6=CC(=O)OC6)CC[C@]5(O)[C@@H]4CC[C@]3(O)C2)O[C@H](C)[C@H]1O[C@@H]1O[C@H](CO)[C@@H](O)[C@H](O)[C@H]1O
inactive: endpoint: mean survival time, dose: 0.25 mg/kg/injection, schedule: Q01DX009 (ip), vehicle: saline 102 % of control | endpoint: mean survival time, dose: 0.5 mg/kg/injection, schedule: Q01DX009 (ip), vehicle: saline 96 % of control | endpoint: mean survival time, dose: 1.0 mg/kg/injection, schedule: Q01DX009 (ip), vehicle: saline 110 % of control

Cc1nc(N)[nH]c(=O)c1CCS
inactive: endpoint: mean survival time, dose: 100.0 mg/kg/injection, schedule: Q01DX001 (ip), vehicle: saline 97 % of control | endpoint: mean survival time, dose: 200.0 mg/kg/injection, schedule: Q01DX001 (ip), vehicle: saline 100 % of control

CC(C)(C)OC(=O)NC(CCCCNC(=O)C(F)(F)F)C(=O)O (centres undefined)
inactive: [6] 102 % of control | [8] 93 % of control | [10] 87 % of control

NC(=O)c1ncc(-c2ccccc2)[nH]c1=O
inactive: endpoint: mean survival time, dose: 100.0 mg/kg/injection, schedule: Q04DX003 (ip), vehicle: saline 93 % of control | endpoint: mean survival time, dose: 200.0 mg/kg/injection, schedule: Q04DX003 (ip), vehicle: saline 98 % of control | endpoint: mean survival time, dose: 400.0 mg/kg/injection, schedule: Q04DX003 (ip), vehicle: saline 102 % of control

CC1C2CCC(C2)C1CO (centres undefined)
inactive: [11] 102 % of control | [12] 98 % of control | endpoint: mean survival time, dose: 200.0 mg/kg/injection, schedule: Q01DX009 (ip), vehicle: saline 104 % of control

COc1ccc(CCCC(=O)O)cc1
inactive: [5] 94 % of control | [7] 92 % of control | [9] 94 % of control

ClCCN(CCCl)c1ccc(N=Nc2ccc(Cl)cc2)cc1
inactive: endpoint: mean survival time, dose: 100.0 mg/kg/injection, schedule: Q01DX001 (ip), vehicle: Klucel (hydroxypropylcellulose) (HPC) 94 % of control | endpoint: mean survival time, dose: 200.0 mg/kg/injection, schedule: Q01DX001 (ip), vehicle: Klucel (hydroxypropylcellulose) (HPC) 94 % of control | endpoint: mean survival time, dose: 400.0 mg/kg/injection, schedule: Q01DX001 (ip), vehicle: Klucel (hydroxypropylcellulose) (HPC) 97 % of control

OCCN=Cc1ccccc1
inactive: endpoint: mean survival time, dose: 25.0 mg/kg/injection, schedule: Q01DX009 (ip), vehicle: saline 95 % of control | [11] 92 % of control | [12] 97 % of control | [1] 106 % of control

Nc1nc(Cl)nc2c1ncn2C1OC(CO)C(O)C1O (centres undefined)
inactive: endpoint: mean survival time, dose: 6.25 mg/kg/injection, schedule: Q04DX002 (ip), vehicle: saline 94 % of control | endpoint: mean survival time, dose: 12.5 mg/kg/injection, schedule: Q04DX002 (ip), vehicle: saline 109 % of control | [13] 105 % of control | [12] 121 % of control

CC[C@]12CN3CCc4c([nH]c5ccccc45)[C@@](C(=O)OC)(c4cc5c(cc4OC)N(C)[C@H]4[C@@](O)(C(=O)OC)[C@H](OC(C)=O)[C@]6(CC)C=CCN7CC[C@]54[C@@H]76)CC(C3)[C@H]1O2 (some centres undefined)
inactive: endpoint: mean survival time, dose: 1.5 mg/kg/injection, schedule: Q01DX009 (ip), vehicle: Klucel (hydroxypropylcellulose) (HPC) 106 % of control | endpoint: mean survival time, dose: 3.0 mg/kg/injection, schedule: Q01DX009 (ip), vehicle: Klucel (hydroxypropylcellulose) (HPC) 108 % of control | endpoint: mean survival time, dose: 6.0 mg/kg/injection, schedule: Q01DX009 (ip), vehicle: Klucel (hydroxypropylcellulose) (HPC) 110 % of control | endpoint: mean survival time, dose: 6.25 mg/kg/injection, schedule: Q04DX003 (ip), vehicle: saline 111 % of control | endpoint: mean survival time, dose: 12.0 mg/kg/injection, schedule: Q01DX009 (ip), vehicle: Klucel (hydroxypropylcellulose) (HPC) 112 % of control | endpoint: mean survival time, dose: 12.5 mg/kg/injection, schedule: Q04DX003 (ip), vehicle: saline 120 % of control | endpoint: median survival time, dose: 1.0 mg/kg/injection, schedule: Q03HX008 (ip), vehicle: saline 100 % of control | endpoint: median survival time, dose: 1.0 mg/kg/injection, schedule: Q03HX016 (ip), vehicle: saline 100 % of control | endpoint: median survival time, dose: 1.0 mg/kg/injection, schedule: Q03HX024 (ip), vehicle: saline 100 % of control | endpoint: median survival time, dose: 2.0 mg/kg/injection, schedule: Q03HX008 (ip), vehicle: saline 110 % of control | endpoint: median survival time, dose: 2.0 mg/kg/injection, schedule: Q03HX016 (ip), vehicle: saline 120 % of control | endpoint: median survival time, dose: 2.0 mg/kg/injection, schedule: Q03HX024 (ip), vehicle: saline 120 % of control | endpoint: median survival time, dose: 4.0 mg/kg/injection, schedule: Q01DX009 (ip), vehicle: saline 110 % of control | endpoint: median survival time, dose: 4.0 mg/kg/injection, schedule: Q04DX003 (ip), vehicle: saline 100 % of control | endpoint: median survival time, dose: 8.0 mg/kg/injection, schedule: Q01DX001 (ip), vehicle: saline 100 % of control | endpoint: median survival time, dose: 8.0 mg/kg/injection, schedule: Q04DX003 (ip), vehicle: saline 105 % of control | endpoint: median survival time, dose: 8.0 mg/kg/injection, schedule: Q08DX002 (ip), vehicle: saline 115 % of control | endpoint: median survival time, dose: 16.0 mg/kg/injection, schedule: Q01DX001 (ip), vehicle: saline 110 % of control | endpoint: median survival time, dose: 16.0 mg/kg/injection, schedule: Q01DX009 (ip), vehicle: saline 100 % of control | endpoint: median survival time, dose: 16.0 mg/kg/injection, schedule: Q08DX002 (ip), vehicle: saline 110 % of control | endpoint: median survival time, dose: 32.0 mg/kg/injection, schedule: Q01DX001 (ip), vehicle: saline 110 % of control

CC1=CC(=O)C(C(=O)CC(O)(C(F)(F)F)C(F)(F)F)C(=O)O1 (centres undefined)
inactive: [5] 98 % of control | [7] 104 % of control | [9] 95 % of control

COc1ccc(NC(=O)CC(C)=O)cc1
inactive: [6] 97 % of control | [8] 103 % of control | [10] 100 % of control

CCCCS(=O)(=O)F
inactive: [13] 96 % of control | endpoint: mean survival time, dose: 50.0 mg/kg/injection, schedule: Q04DX002 (ip), vehicle: saline 101 % of control

CC(=O)c1ccccc1[N+](=O)[O-]
inactive: [6] 94 % of control | [8] 95 % of control

O=C(CC(Br)C(=O)c1ccccc1)c1ccccc1 (centres undefined)
inactive: endpoint: mean survival time, dose: 100.0 mg/kg/injection, schedule: Q04DX003 (ip), vehicle: saline sonified 92 % of control | endpoint: mean survival time, dose: 200.0 mg/kg/injection, schedule: Q04DX003 (ip), vehicle: saline sonified 94 % of control | endpoint: mean survival time, dose: 400.0 mg/kg/injection, schedule: Q04DX003 (ip), vehicle: saline sonified 97 % of control

c1coc(CNc2ncnc3c2ncn3Cc2ccco2)c1
inactive: endpoint: mean survival time, dose: 6.25 mg/kg/injection, schedule: Q01DX005 (ip), vehicle: other 96 % of control | endpoint: mean survival time, dose: 12.5 mg/kg/injection, schedule: Q01DX005 (ip), vehicle: other 90 % of control | endpoint: mean survival time, dose: 25.0 mg/kg/injection, schedule: Q01DX005 (ip), vehicle: other 90 % of control

CCOc1ccccc1C1=CCCCCC1
inactive: [1] 98 % of control | [2] 107 % of control | [3] 103 % of control
